# Source: PMC11366520, “Purification of angiotensin converting enzyme inhibitory peptides and antihypertensive effect generated from Indonesian traditional fermented beef (Cangkuk)” (Animal Bioscience, 2024)
# Read-outs that look alike come from different tables or passages of the source. Residues, ends and D or L forms follow the SMILES beside them. No end group written: not given here.
# How the values were obtained:
# [1] = target: T1, Angiotensin converting enzyme (from rabbit lung) (Oryctolagus cuniculus, UniProt P12822); test: ACE-inhibitory activity, hippuric acid liberated from Hip-His-Leu (Cushman and Cheung, modified); assay type: biochemical; conditions: synthetic peptides, purity 80%, sodium borate buffer pH 8.3, Hip-His-Leu 7.6 mM, NaCl 608 mM, pre-incubation 5 min, incubation 30 min, 37°C, 228 nm
# T1 construct: Angiotensin converting enzyme (from rabbit lung); purchased Sigma-Aldrich Co. (St. Louis, MO, USA); host or cells: rabbit lung (tissue-derived)
# T1 sequence (P12822 34-1310): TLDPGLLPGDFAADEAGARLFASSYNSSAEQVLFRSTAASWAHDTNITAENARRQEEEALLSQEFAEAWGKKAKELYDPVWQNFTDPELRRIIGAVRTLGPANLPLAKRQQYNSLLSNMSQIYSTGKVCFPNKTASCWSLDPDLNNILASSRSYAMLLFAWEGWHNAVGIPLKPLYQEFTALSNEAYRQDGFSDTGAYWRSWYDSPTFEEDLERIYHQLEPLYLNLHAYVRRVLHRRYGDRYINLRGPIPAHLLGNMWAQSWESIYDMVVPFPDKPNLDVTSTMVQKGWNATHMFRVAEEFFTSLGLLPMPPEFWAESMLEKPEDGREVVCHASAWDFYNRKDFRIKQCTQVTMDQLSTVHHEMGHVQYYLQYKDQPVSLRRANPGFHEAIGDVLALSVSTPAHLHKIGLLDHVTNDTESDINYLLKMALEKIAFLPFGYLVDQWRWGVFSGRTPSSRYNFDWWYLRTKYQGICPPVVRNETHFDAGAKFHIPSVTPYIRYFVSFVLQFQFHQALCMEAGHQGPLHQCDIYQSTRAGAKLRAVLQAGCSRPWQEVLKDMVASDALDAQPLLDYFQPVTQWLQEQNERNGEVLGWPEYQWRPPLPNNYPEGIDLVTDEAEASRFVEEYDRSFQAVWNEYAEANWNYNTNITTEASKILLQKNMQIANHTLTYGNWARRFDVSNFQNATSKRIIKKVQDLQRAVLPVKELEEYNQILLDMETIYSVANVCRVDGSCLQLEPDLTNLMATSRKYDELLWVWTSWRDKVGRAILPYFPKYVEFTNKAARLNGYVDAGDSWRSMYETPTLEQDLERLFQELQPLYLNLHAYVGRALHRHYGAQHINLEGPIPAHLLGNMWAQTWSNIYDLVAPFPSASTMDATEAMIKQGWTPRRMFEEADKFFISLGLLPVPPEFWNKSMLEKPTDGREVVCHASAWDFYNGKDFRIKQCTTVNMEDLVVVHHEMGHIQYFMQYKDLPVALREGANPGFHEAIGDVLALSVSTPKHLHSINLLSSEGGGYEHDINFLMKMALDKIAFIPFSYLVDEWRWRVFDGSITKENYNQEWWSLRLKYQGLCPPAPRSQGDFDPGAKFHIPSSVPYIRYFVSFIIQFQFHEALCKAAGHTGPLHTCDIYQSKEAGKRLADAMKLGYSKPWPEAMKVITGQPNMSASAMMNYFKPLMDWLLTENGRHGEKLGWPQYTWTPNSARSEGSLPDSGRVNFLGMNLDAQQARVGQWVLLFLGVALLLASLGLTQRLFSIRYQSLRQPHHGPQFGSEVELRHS
# From the text: The raw materials used in processing Cangkuk were fresh beef meat (brisket) from male Bali cattle, aged 2.5 to 3 years, purchased from the Animal Slaughtering House in Pekanbaru City. Green bamboo shoots were harvested from local farms. The additional ingredients were cooked rice, salt and distilled water. Angiotensin converting enzyme (from rabbit lung) and the substrate, hippuryl-L-histidyl-leucine, were purchased from Sigma-Aldrich Co. (St. Louis, MO, USA). All the chemicals and reagents used were of analytical grade.
# ACE-inhibitory activity was analyzed according to the method of Cushman and Cheung with modifications by Arihara et al. This assay is based on liberation of hippuric acid from Hip-His-Leu catalyzed by ACE. A sample solution (15 μL) was mixed with 125 μL of a 100 mM sodium borate buffer (pH 8.3) containing 7.6 mM Hyp-Hys-Leu and 608 mM NaCl followed by pre-incubation for 5 min at 37°C. The reaction was initiated by adding 50 μL of ACE dissolved in distilled water, and the mixture was incubated for 30 min at 37°C. The reaction was stopped by adding 125 μL of 1 N HCl. […] Hippuric acid was dissolved with 1 mL of distilled water and its concentration spectrophotometrically determined at 228 nm. ACE inhibitory activity was calculated as: […]
# where A, absorbance of the sample reaction; B, absorbance of the blank; and C, absorbance of the control (distilled water).
# ACE = conditions: cited from earlier work; for IC50: read-out: IC50 value (ACE inhibition)
# Experimental: According to a previous study, “Cangkuk” is made from fresh beef to which bamboo shoots, rice and salt are added. The treatment evaluated in the current research was addition of bamboo shoots with different preparation methods (chopped, ground, and extracted) and varied meat:bamboo shoot ratios (1:0.75, 1:1, and 1:1.25). Then, these preparations were fermented under anaerobic conditions at room temperature for seven days. It was reported that all treatments had ACE-inhibitory activities ranging from 43% to 80%. […] EAPLNPKANR, is a fragment of the 3rd to 12th amino acid sequence of LTEAPLNPKANREK [25]. […] The presence of hydrophobic amino acids such as isoleucine, valine, and glycine in the sequence has been associated with ACE-inhibitory activity.
# SHRs = conditions: cited from earlier work
# From the text: Meat and meat products are excellent sources of ACE-inhibitory peptides. ACE-inhibitory peptides from animal proteins can be produced by several methods, including enzymatic hydrolysis and fermentation. […] The higher the dose, the greater the decrease in SBPs. […] There is strong association between ACE inhibition and the antihypertensive effects of a bioactive peptide owing to its structure, size, chain length, type and order of amino acids ... || (+ 1 further places)
# [2] = pepsin hydrolyzed peptides from porcine skeletal myosin B; ref [9]; cited from earlier work
# From the text: Meat and meat products are excellent sources of ACE-inhibitory peptides. ACE-inhibitory peptides from animal proteins can be produced by several methods, including enzymatic hydrolysis and fermentation. […] The pepsin hydrolyzed peptide Lys-Arg-Val-Ile-Gln-Try and the Val-Lys-Ala-Gly-Ph sequence from por ...
compound,measurement,setting,value
CC[C@H](C)[C@H](N)C(=O)N[C@H](C(=O)NCC(=O)O)C(C)C [IVG] (H-Ile-Val-Gly-OH),IC50,[1],97.3 µM
IVDR [tetrapeptide from Paralichthys olivaceus surimi],ACE inhibitory activity (in words),"ACE; tetrapeptide from Paralichthys olivaceus surimi, ref [31]",high ACE inhibitory activity
same,decrease of blood pressure in SHRs (in words),"SHRs; 6 h after administration, ref [31]",could decrease blood pressure in SHRs 6 h after its administration
WGAP,reduction of SBP,"SHRs; 100 mg/kg BW oral, SHRs, 4 h after administration, ref [33]",up to 42.6 mmHg
Val-Lys-Ala-Gly-Ph,antihypertensive effects in vivo (in words),[2],showed antihypertensive effects in vivo
LTEAPLNPKANREK,IC50,"ACE; peptide from goat meat hydrolysate (pepsin, trypsin, chymotrypsin), ref [25]",120 µM
EAPLNPKANR [EAPLNPKANR],IC50,[1],44.6 µM
Lys-Arg-Val-Ile-Gln-Try [pepsin hydrolyzed peptide from porcine skeletal myosin B],antihypertensive effects in vivo (in words),[2],showed antihypertensive effects in vivo
IVGRPRHQG,IC50,"ACE; nonapeptide from Katsuobusi, ref [26]",6.2 µM
IKEVTER,ACE-inhibitory activity (in words),"ACE; peptide from venison treated with pepsin-trypsin-pancreatin, ref [28]",strong ACE-inhibitory activity
LIVGIIRCV [nonapeptide from beef myofibrillar protein hydrolysate],antihypertensive effect in SHRs (in words),"SHRs; alkaline-AK-pepsin hydrolyzed peptide from beef myofibrillar protein, ref [8]",had an antihypertensive effect in SHRs
